Results as given in PubChem BioAssay (NCI).
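Assay format: 96-well plates, 48-hour exposure. Definition used: TGI = concentration required for complete inhibition of growth.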

Key:
Assay in all cases: NCI anticancer screen, dose series, 48 h
T-47D breast = tested on: T-47D breast
HOP-62 NSCLC = tested on: HOP-62 NSCLC
M14 melanoma = tested on: M14 melanoma
MDA-N = tested on: MDA-N
UO-31 renal = tested on: UO-31 renal
HCT-15 colon = tested on: HCT-15 colon
SNB-75 CNS = tested on: SNB-75 CNS
DU-145 prostate = tested on: DU-145 prostate
HOP-92 NSCLC = tested on: HOP-92 NSCLC
OVCAR-5 ovarian = tested on: OVCAR-5 ovarian
OVCAR-4 ovarian = tested on: OVCAR-4 ovarian
CCRF-CEM leukemia = tested on: CCRF-CEM leukemia
HL-60(TB) leukemia = tested on: HL-60(TB) leukemia
SN12C renal = tested on: SN12C renal
COLO 205 colon = tested on: COLO 205 colon
BT-549 breast = tested on: BT-549 breast
IGROV1 ovarian = tested on: IGROV1 ovarian
SW-620 colon = tested on: SW-620 colon
ACHN renal = tested on: ACHN renal
HT29 colon = tested on: HT29 colon
NCI-H23 lung = tested on: NCI-H23 lung
SK-MEL-28 melanoma = tested on: SK-MEL-28 melanoma
SF-268 CNS = tested on: SF-268 CNS
UACC-62 melanoma = tested on: UACC-62 melanoma
MDA-MB-231 breast = tested on: MDA-MB-231 breast
U251 CNS = tested on: U251 CNS
SNB-19 CNS = tested on: SNB-19 CNS
RPMI-8226 leukemia = tested on: RPMI-8226 leukemia
NCI-H522 lung = tested on: NCI-H522 lung
A549 NSCLC = tested on: A549 NSCLC
K-562 leukemia = tested on: K-562 leukemia
TK-10 renal = tested on: TK-10 renal
PC-3 prostate = tested on: PC-3 prostate
SF-295 CNS = tested on: SF-295 CNS
786-0 renal = tested on: 786-0 renal
SK-OV-3 ovarian = tested on: SK-OV-3 ovarian
MOLT-4 leukemia = tested on: MOLT-4 leukemia
RXF 393 renal = tested on: RXF 393 renal
HS 578T breast = tested on: HS 578T breast
OVCAR-8 ovarian = tested on: OVCAR-8 ovarian
SR leukemia = tested on: SR leukemia
UACC-257 melanoma = tested on: UACC-257 melanoma
NCI-H460 lung = tested on: NCI-H460 lung
MCF7 breast = tested on: MCF7 breast
KM12 colon = tested on: KM12 colon
MALME-3M melanoma = tested on: MALME-3M melanoma
SF-539 CNS = tested on: SF-539 CNS
NCI/ADR-RES ovarian = tested on: NCI/ADR-RES ovarian
SK-MEL-2 melanoma = tested on: SK-MEL-2 melanoma
LOX IMVI melanoma = tested on: LOX IMVI melanoma
SK-MEL-5 melanoma = tested on: SK-MEL-5 melanoma
HCT-116 colon = tested on: HCT-116 colon

Measured: TGI

Cc1ccc(S(=O)(=O)NC(=O)NC(CCC(N)=O)C(=O)O)cc1 (configuration not stated)
> 100 µM: all assays above
